Patent US4529731A, “Thiadiazolediamine derivative with histamine H-2 receptor inhibiting properties” (American Home Products Corporation, priority 1983, dated 1985)
Entries after “also recorded” stand apart in the source; their conditions may differ.

Assays:
[1] = system: spontaneous gastric acid secretion in cannulated rats; test: inhibiting spontaneous gastric acid secretion in cannulated rats; type: in vivo, Male albino Sprague Dawley rats; settings: for time after which a significant response ceases: cimetidine 80 mg/kg, ranitidine 60 mg/kg
Excerpt: Male albino Sprague Dawley rats (200-300 g), purchased from Canadian Breeding Laboratories, were employed. Two gastric cannulas were implanted surgically in each rat as described by L. E. Borella and F. Herr, Gastroenterology, 61, 345 (1971). The rats were used two to three weeks after the operation at a time when their food intake and weight gain were similar to the food intake and weight gain of unoperated litter mates. […] Prior to each experiment, the plugs of the stomach cannulas of each rat were removed and the debris present in the stomach was flushed out with tepid saline passed through the cannulas. Thereafter, the lumen of the stomach was continuously perfused with saline introduced into the stomach through the forestomach cannula at a rate of 0.8-1.2 ml/min. […] On the basis of the hourly acid output, the rats were divided into equal groups so that the average acid output of all groups was similar. Saline (vehicle) or saline suspensions or solutions of the test compounds were administered intragastrically (i.g.) through the forestomach cannula, after having closed the antral cannula. During the one hour absorption period, the stomachs of the rats were not perfused. […] The average post-treatment hourly acid outputs of the test compound groups were compared to that of the saline group and the percent inhibition of acid output was calculated. Multiple statistical comparisons between groups was done using Dunnet's test, C. W. Dunnet, Journal of American Statistical Association, 50, 1096 (1955).

[2] = system: cold-restraint-induced gastric lesions; test: development of cold-restraint-induced gastric lesions (ulcers); type: in vivo, male albino rats (Sprague-Dawley); settings: p.o.; for ULCER SCORE (MEAN ± S.E.): number of ulcers in glandular stomach
Method: Senay and R. J. Levine, Proc. Soc. Exp. Biol. Med., 124, 1221 (1967).
More explicitly exemplified, the beneficial effects were evaluated as follow: Food was withheld from male albino rats (165-175 g, Sprague-Dawley, Canadian Breeding Laboratories) for 24 hours but water was freely available. The object compound was administered orally in one milliliter of a liquid vehicle to the animals 30 minutes before placing the animals into restrainers. Just prior to being restrained, each animal was given orally 50 mg of sodium taurocholate. The vehicle empoloyed was saline containing polysorbate 80 (oleate ester of sorbitol and its anhydrides copolymerized with ethylene oxide), one drop per five milliliters of saline. The restrainers were made of plexiglass and restricted the movement of the rat to a minimum. The restrainers were placed in a cold environment (4°-5° C.) for three hours. The animals were sacrificed by cervical dislocation, the stomachs removed and the number of ulcers in the glandular portion of the stomach determined.

[3] = system: histamine H-2 receptors; test: inhibition of histamine H-2 receptors (statement in words)
[4] = toxicity (statement in words)
[5] = 1 hr after dosing, peroral, object compound 80, cimetidine 80, ranitidine 60 mg/kg
[6] = 2 hr after dosing, peroral, object compound 80, cimetidine 80, ranitidine 60 mg/kg
[7] = 3 hr after dosing, peroral, object compound 80, cimetidine 80, ranitidine 60 mg/kg
[8] = 4 hr after dosing, peroral, object compound 80, cimetidine 80, ranitidine 60 mg/kg, cimetidine value = last statistically significant (*)
[9] = 5 hr after dosing, peroral, object compound 80, cimetidine 80, ranitidine 60 mg/kg, ranitidine value = last statistically significant (*)
[10] = 6 hr after dosing, peroral, object compound 80, ranitidine 60 mg/kg
[11] = 7 hr after dosing, peroral, object compound 80, ranitidine 60 mg/kg

| Compound | % INHIBITION OF ACID OUTPUT AT VARIOUS TIMES (HR) AFTER DOSING [1, 5] | % INHIBITION OF ACID OUTPUT AT VARIOUS TIMES (HR) AFTER DOSING [1, 6] | % INHIBITION OF ACID OUTPUT AT VARIOUS TIMES (HR) AFTER DOSING [1, 7] | % INHIBITION OF ACID OUTPUT AT VARIOUS TIMES (HR) AFTER DOSING [1, 8] | % INHIBITION OF ACID OUTPUT AT VARIOUS TIMES (HR) AFTER DOSING [1, 9] | % INHIBITION OF ACID OUTPUT AT VARIOUS TIMES (HR) AFTER DOSING [1, 10] | % INHIBITION OF ACID OUTPUT AT VARIOUS TIMES (HR) AFTER DOSING [1, 11] | time after which a significant response ceases ([1]; peroral) | further results |
| --- | --- | --- | --- | --- | --- | --- | --- | --- | --- |
| CN(C)CCNc1n[s+]([O-])nc1NCCCOc1cccc(CN2CCCCC2)c1 (stereo not shown) [Object compound, N-[2-(dimethylamino)ethyl]-N'-[3-[3-[(1-piperidinyl)methyl]phenoxy]propyl]-1,2,5-thiadiazole-3,4-diamine, 1-oxide] | 88% | 95% | 96% | 95% | 94% | 85% | 61% | – | % INHIBITION OF ACID OUTPUT AT VARIOUS TIMES (HR) AFTER DOSING ([1]; 8 hr after dosing, peroral, object compound 80 mg/kg): 52%; % INHIBITION OF ACID OUTPUT AT VARIOUS TIMES (HR) AFTER DOSING ([1]; 9 hr after dosing, peroral, object compound 80 mg/kg): 63%; % INHIBITION OF ACID OUTPUT AT VARIOUS TIMES (HR) AFTER DOSING ([1]; 10 hr after dosing, peroral, object compound 80 mg/kg): 64%; % INHIBITION OF ACID OUTPUT AT VARIOUS TIMES (HR) AFTER DOSING ([1]; 18 hr after dosing, peroral, object compound 80 mg/kg): 32%; % INHIBITION OF ACID OUTPUT AT VARIOUS TIMES (HR) AFTER DOSING ([1]; 19 hr after dosing, peroral, object compound 80 mg/kg, last statistically significant value (*)): 29%; % INHIBITION OF ACID OUTPUT AT VARIOUS TIMES (HR) AFTER DOSING ([1]; 20 hr after dosing, peroral, object compound 80 mg/kg): 7%; % INHIBITION OF 3 HOURS GASTRIC ACID OUTPUT ([1]; peroral dose 20 mg/kg, rat): 36%; % INHIBITION OF 3 HOURS GASTRIC ACID OUTPUT ([1]; peroral dose 40 mg/kg, rat): 65%; % INHIBITION OF 3 HOURS GASTRIC ACID OUTPUT ([1]; peroral dose 80 mg/kg, rat): 74%; duration of effect compared with cimetidine and ranitidine ([1]; peroral, object compound 80, cimetidine 80, ranitidine 60 mg/kg): longer acting effect; duration of action ([1]; rat, in vivo): long acting properties; % INHIBITION (ulcer score) ([2]; 1 mg/kg): 44%; ULCER SCORE (MEAN ± S.E.) ([2]; 1 mg/kg): 10 ± 9; % INHIBITION (ulcer score) ([2]; 5 mg/kg, * p < 0.05): 89%; ULCER SCORE (MEAN ± S.E.) ([2]; 5 mg/kg): 2 ± 1; % INHIBITION (ulcer score) ([2]; 20 mg/kg, ** p < 0.01): 95%; ULCER SCORE (MEAN ± S.E.) ([2]; 20 mg/kg): 0.9 ± 0.5; inhibition of histamine H-2 receptors [3]: effective inhibitor of histamine H-2 receptors; also recorded: specifically inhibits H-2 histamine receptors; order of toxicity [4]: relatively low order of toxicity |
| CN/C(=N/CCSCc1nc[nH]c1C)NC#N [cimetidine, reference compound] | 84% | 84% | 63% | 52% | 3% | – | – | 5 h | – |
| CNC(=C[N+](=O)[O-])NCCSCc1ccc(CN(C)C)o1 [ranitidine, reference compound] | 69% | 81% | 65% | 63% | 44% | 39% | 6% | 6 h | – |
